Assays:
giant foxtail = test: Test B pre-/postemergence herbicide test; assay type: in vivo, Setaria faberi
Summary of the method: (§1)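 Response was scored visually 13 to 15 days after treatment against untreated greenhouse controls, 0 meaning no effect and 100 complete control. Formulations (solvent mixture plus surfactant) went onto soil after planting, onto foliage of 1- to 4-leaf plants, and onto 2-leaf plants in a flooded paddy set including rice and barnyardgrass.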

large crabgrass = test: Test B pre-/postemergence herbicide test; assay type: in vivo, Digitaria sanguinalis
Summary of the method: as §1

cocklebur = test: Test B pre-/postemergence herbicide test; assay type: in vivo, Xanthium strumarium
Summary of the method: (§2)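 Visual rating, 0 (no effect) to 100 (complete control), versus untreated controls after 13–15 d in greenhouse. Pre- and postemergence applications (postemergence plants 2–18 cm, 1–4 leaves); flooded paddy arm at 2-leaf stage. Compounds in non-phytotoxic solvent plus surfactant.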

barnyardgrass = test: Test B pre-/postemergence herbicide test; assay type: in vivo, Echinochloa crus-galli
Summary of the method: as §2

Surinam grass = test: Test B pre-/postemergence herbicide test; assay type: in vivo, Urochloa decumbens
Summary of the method: as §1

lambsquarters = test: Test B pre-/postemergence herbicide test; assay type: in vivo, Chenopodium album
Summary of the method: as §1

morningglory = test: Test B pre-/postemergence herbicide test; assay type: in vivo, Ipomoea coccinea
Summary of the method: as §2

velvetleaf = test: Test B pre-/postemergence herbicide test; assay type: in vivo, Abutilon theophrasti
Summary of the method: as §1

pigweed = test: Test B pre-/postemergence herbicide test; assay type: in vivo, Amaranthus retroflexus
Summary of the method: as §1

wild oat = test: Test B postemergence herbicide test; assay type: in vivo, Avena fatua; conditions: for Plant response rating, Oat, Wild: visual rating after 13 to 15 days
Summary of the method: (§3)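 After treating 2-leaf paddy plants or 2–18 cm postemergence plants (1 to 4 leaves) with formulated chemical, researchers kept them in a greenhouse for 13–15 days. Effects were judged visually versus controls: 0 indicates none, 100 total control.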

wheat = test: Test B postemergence herbicide test; assay type: in vivo, Triticum aestivum; parameters: key to Wheat plant response rating: 0 = no effect, 100 = complete control
Summary of the method: as §3

corn = test: Test B pre-/postemergence herbicide test; assay type: in vivo, Zea mays
Summary of the method: as §1

blackgrass = test: Test B postemergence herbicide test; assay type: in vivo, Alopecurus myosuroides; conditions: for Plant response rating, Blackgrass: visual rating after 13 to 15 days
Summary of the method: (§4)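 Visual ratings, 0 (no effect) to 100 (complete control), made versus controls after 13–15 d greenhouse. Paddy plants treated at 2-leaf stage; postemergence plants at 1- to 4-leaf stage, 2–18 cm tall.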

[1] = system: small flower umbrella sedge; test: Test B flooded paddy test; assay type: in vivo, Cyperus difformis; conditions: 1000 g ai/ha, scale 0 to 100 (0 no effect, 100 complete control)
Summary of the method: as §4

[2] = 125 g ai/ha, 0 = no effect, 100 = complete control, preemergence
[3] = 500 g ai/ha, visual rating, 0 = no effect, 100 = complete control, preemergence
[4] = postemergence, 125 g ai/ha, visual rating, scale 0 (no effect) to 100 (complete control)
[5] = postemergence, 500 g ai/ha, scale 0 to 100, 0 is no effect, 100 is complete control
[6] = postemergence, 500 g ai/ha; scale 0 to 100, 0 is no effect, 100 is complete control
[7] = 125 g ai/ha, visual rating, scale 0 (no effect) to 100 (complete control), postemergence
[8] = Postemergence, 125 g ai/ha, scale 0 (no effect) to 100 (complete control)
[9] = Postemergence, 500 g ai/ha, visual rating after 13 to 15 days, scale 0 (no effect) to 100 (complete control)
[10] = Preemergence, 500 g ai/ha, scale 0 to 100
[11] = preemergence, 125 g ai/ha, 0 to 100 scale, 0 is no effect, 100 is complete control
[12] = Postemergence, 500 g ai/ha, scale 0 (no effect) to 100 (complete control)
[13] = Postemergence, 500 g ai/ha; visual rating after 13 to 15 days, scale 0 (no effect) to 100 (complete control)

CCNC(=O)c1ccc(F)c(NC(=O)C2CC(C(C)(C)C)=NN2CC)c1 (racemic) [Compound 269]
Foxtail, Giant plant response rating (0 to 100 scale) (giant foxtail; [2]): 80 | Plant response rating, Foxtail, Giant (giant foxtail; [3]): 100 | Foxtail, Giant plant response rating (giant foxtail; [4]): 30 | Foxtail, Giant plant response rating (giant foxtail; [5]): 30 | Crabgrass, Large plant response rating (0 to 100 scale) (large crabgrass; [2]): 100 | Plant response rating, Crabgrass, Large (large crabgrass; [3]): 100 | Crabgrass, Large plant response rating (large crabgrass; [4]): 10 | Crabgrass, Large plant response rating (large crabgrass; [5]): 20 | Cocklebur plant response rating (0 to 100 scale) (cocklebur; [2]): 20 | Plant response rating, Cocklebur (cocklebur; [3]): 70 | Cocklebur plant response rating (cocklebur; [4]): 20 | Cocklebur plant response rating (cocklebur; [5]): 50 | Barnyardgrass plant response rating (0 to 100 scale) (barnyardgrass; [2]): 80 | Plant response rating, Barnyardgrass (barnyardgrass; [3]): 100 | Barnyardgrass plant response rating (barnyardgrass; [4]): 10 | Barnyardgrass plant response rating (barnyardgrass; [5]): 30 | Surinam Grass plant response rating (0 to 100 scale) (Surinam grass; [2]): 50 | Plant response rating, Surinam Grass (Surinam grass; [3]): 100 | Surinam Grass plant response rating (Surinam grass; [4]): 10 | Surinam Grass plant response rating (Surinam grass; [5]): 20 | Lambsquarters plant response rating (0 to 100 scale) (lambsquarters; [2]): 100 | Plant response rating, Lambsquarters (lambsquarters; [3]): 100 | Lambsquarters plant response rating (lambsquarters; [4]): 50 | Lambsquarters plant response rating (lambsquarters; [5]): 70 | Morningglory plant response rating (0 to 100 scale) (morningglory; [2]): 10 | Plant response rating, Morningglory (morningglory; [3]): 20 | Morningglory plant response rating (morningglory; [4]): 20 | Morningglory plant response rating (morningglory; [5]): 40 | Velvetleaf plant response rating (0 to 100 scale) (velvetleaf; [2]): 60 | Plant response rating, Velvetleaf (velvetleaf; [3]): 100 | Velvetleaf plant response rating (velvetleaf; [4]): 10 | Velvetleaf plant response rating (velvetleaf; [5]): 20 | Pigweed plant response rating (0 to 100 scale) (pigweed; [2]): 100 | Plant response rating, Pigweed (pigweed; [3]): 100 | Pigweed plant response rating (pigweed; [4]): 60 | Pigweed plant response rating (pigweed; [5]): 60 | Oat, Wild plant response rating (wild oat; [4]): 20 | Oat, Wild plant response rating (wild oat; [5]): 30 | Wheat plant response rating (wheat; postemergence, 125 g ai/ha; visual rating, scale 0 (no effect) to 100 (complete control)): 20 | Wheat plant response rating (wheat; [6]): 30 | Corn plant response rating (0 to 100 scale) (corn; [2]): 60 | Plant response rating, Corn (corn; [3]): 80 | Corn plant response rating (corn; [4]): 10 | Corn plant response rating (corn; [5]): 30 | Blackgrass plant response rating (blackgrass; [4]): 20 | Blackgrass plant response rating (blackgrass; [5]): 50 | Sedge, Umbrella plant response rating [1]: 80

CCN1N=C(C(C)(C)C)CC1C(=O)Nc1cc(C(=O)N2CC=CC2)ccc1F (racemic) [Compound 310]
Foxtail, Giant plant response rating (0 to 100 scale) (giant foxtail; [2]): 50 | Foxtail, Giant plant response rating (giant foxtail; [7]): 10 | Plant response rating, Foxtail, Giant (giant foxtail; [3]): 100 | Foxtail, Giant plant response rating (giant foxtail; [5]): 40 | Crabgrass, Large plant response rating (0 to 100 scale) (large crabgrass; [2]): 90 | Crabgrass, Large plant response rating (large crabgrass; [7]): 10 | Plant response rating, Crabgrass, Large (large crabgrass; [3]): 100 | Crabgrass, Large plant response rating (large crabgrass; [5]): 30 | Cocklebur plant response rating (0 to 100 scale) (cocklebur; [2]): 10 | Cocklebur plant response rating (cocklebur; [7]): 0 | Plant response rating, Cocklebur (cocklebur; [3]): 50 | Cocklebur plant response rating (cocklebur; [5]): 20 | Barnyardgrass plant response rating (0 to 100 scale) (barnyardgrass; [2]): 60 | Barnyardgrass plant response rating (barnyardgrass; [7]): 0 | Plant response rating, Barnyardgrass (barnyardgrass; [3]): 90 | Barnyardgrass plant response rating (barnyardgrass; [5]): 20 | Surinam Grass plant response rating (0 to 100 scale) (Surinam grass; [2]): 30 | Surinam Grass plant response rating (Surinam grass; [7]): 10 | Plant response rating, Surinam Grass (Surinam grass; [3]): 70 | Surinam Grass plant response rating (Surinam grass; [5]): 20 | Lambsquarters plant response rating (0 to 100 scale) (lambsquarters; [2]): 100 | Lambsquarters plant response rating (lambsquarters; [7]): 60 | Plant response rating, Lambsquarters (lambsquarters; [3]): 100 | Lambsquarters plant response rating (lambsquarters; [5]): 80 | Morningglory plant response rating (0 to 100 scale) (morningglory; [2]): 0 | Morningglory plant response rating (morningglory; [7]): 0 | Plant response rating, Morningglory (morningglory; [3]): 10 | Morningglory plant response rating (morningglory; [5]): 50 | Velvetleaf plant response rating (velvetleaf; [7]): 20 | Plant response rating, Velvetleaf (velvetleaf; [3]): 100 | Velvetleaf plant response rating (velvetleaf; [5]): 50 | Pigweed plant response rating (0 to 100 scale) (pigweed; [2]): 80 | Pigweed plant response rating (pigweed; [7]): 50 | Plant response rating, Pigweed (pigweed; [3]): 100 | Pigweed plant response rating (pigweed; [5]): 70 | Oat, Wild plant response rating (wild oat; [7]): 30 | Oat, Wild plant response rating (wild oat; [5]): 40 | Wheat plant response rating (wheat; 125 g ai/ha; visual rating, scale 0 (no effect) to 100 (complete control); postemergence): 10 | Wheat plant response rating (wheat; [6]): 20 | Corn plant response rating (0 to 100 scale) (corn; [2]): 40 | Corn plant response rating (corn; [7]): 0 | Plant response rating, Corn (corn; [3]): 70 | Corn plant response rating (corn; [5]): 20 | Blackgrass plant response rating (blackgrass; [7]): 10 | Blackgrass plant response rating (blackgrass; [5]): 30 | Sedge, Umbrella plant response rating [1]: 80

CCNC(=O)c1cccc(NC(=O)c2cc(C(C)(C)C)nn2CC(F)(F)F)c1 [Compound 31]
Foxtail, Giant plant response rating (giant foxtail; [8]): 20 | Plant response rating, Foxtail, Giant (giant foxtail; [9]): 30 | Foxtail, Giant plant response rating (giant foxtail; [10]): 90 | Plant response rating, Foxtail, Giant (giant foxtail; [11]): 60 | Crabgrass, Large plant response rating (large crabgrass; [8]): 20 | Plant response rating, Crabgrass, Large (large crabgrass; [9]): 30 | Crabgrass, Large plant response rating (large crabgrass; [10]): 50 | Cocklebur plant response rating (cocklebur; [8]): 80 | Plant response rating, Cocklebur (cocklebur; [9]): 90 | Cocklebur plant response rating (cocklebur; [10]): 40 | Barnyardgrass plant response rating (barnyardgrass; [8]): 10 | Plant response rating, Barnyardgrass (barnyardgrass; [9]): 50 | Barnyardgrass plant response rating (barnyardgrass; [10]): 90 | Plant response rating, Surinam Grass (Surinam grass; [9]): 60 | Surinam Grass plant response rating (Surinam grass; [10]): 60 | Plant response rating, Surinam Grass (Surinam grass; [11]): 30 | Lambsquarters plant response rating (lambsquarters; [8]): 90 | Plant response rating, Lambsquarters (lambsquarters; [9]): 90 | Lambsquarters plant response rating (lambsquarters; [10]): 100 | Plant response rating, Lambsquarters (lambsquarters; [11]): 90 | Morningglory plant response rating (morningglory; [8]): 30 | Plant response rating, Morningglory (morningglory; [9]): 70 | Morningglory plant response rating (morningglory; [10]): 80 | Plant response rating, Velvetleaf (velvetleaf; [9]): 50 | Velvetleaf plant response rating (velvetleaf; [10]): 90 | Plant response rating, Velvetleaf (velvetleaf; [11]): 80 | Plant response rating, Pigweed (pigweed; [9]): 90 | Pigweed plant response rating (pigweed; [10]): 100 | Plant response rating, Pigweed (pigweed; [11]): 70 | Oat, Wild plant response rating (wild oat; [8]): 20 | Plant response rating, Oat, Wild (wild oat; [12]): 30 | Plant response rating, Wheat (wheat; [13]): 10 | Corn plant response rating (corn; [8]): 30 | Plant response rating, Corn (corn; [9]): 30 | Corn plant response rating (corn; [10]): 20 | Blackgrass plant response rating (blackgrass; [8]): 0 | Plant response rating, Blackgrass (blackgrass; [12]): 50 | Sedge, Umbrella plant response rating ([1]; visual rating, 13 to 15 days): 50

C=Cn1nc(C(C)(C)C)cc1C(=O)Nc1cccc(C(=O)N(CC)CC)c1 [Compound 34]
Foxtail, Giant plant response rating (giant foxtail; [8]): 30 | Plant response rating, Foxtail, Giant (giant foxtail; [9]): 30 | Foxtail, Giant plant response rating (giant foxtail; [10]): 90 | Plant response rating, Foxtail, Giant (giant foxtail; [11]): 30 | Crabgrass, Large plant response rating (large crabgrass; [8]): 20 | Plant response rating, Crabgrass, Large (large crabgrass; [9]): 20 | Crabgrass, Large plant response rating (large crabgrass; [10]): 100 | Cocklebur plant response rating (cocklebur; [8]): 40 | Plant response rating, Cocklebur (cocklebur; [9]): 90 | Cocklebur plant response rating (cocklebur; [10]): 10 | Barnyardgrass plant response rating (barnyardgrass; [8]): 20 | Plant response rating, Barnyardgrass (barnyardgrass; [9]): 30 | Barnyardgrass plant response rating (barnyardgrass; [10]): 80 | Plant response rating, Surinam Grass (Surinam grass; [9]): 50 | Surinam Grass plant response rating (Surinam grass; [10]): 80 | Plant response rating, Surinam Grass (Surinam grass; [11]): 20 | Lambsquarters plant response rating (lambsquarters; [8]): 80 | Plant response rating, Lambsquarters (lambsquarters; [9]): 90 | Lambsquarters plant response rating (lambsquarters; [10]): 100 | Plant response rating, Lambsquarters (lambsquarters; [11]): 80 | Morningglory plant response rating (morningglory; [10]): 20 | Plant response rating, Morningglory (morningglory; [11]): 0 | Plant response rating, Velvetleaf (velvetleaf; [9]): 50 | Velvetleaf plant response rating (velvetleaf; [10]): 60 | Plant response rating, Velvetleaf (velvetleaf; [11]): 20 | Plant response rating, Pigweed (pigweed; [9]): 90 | Pigweed plant response rating (pigweed; [10]): 100 | Plant response rating, Pigweed (pigweed; [11]): 100 | Oat, Wild plant response rating (wild oat; [8]): 10 | Plant response rating, Oat, Wild (wild oat; [12]): 10 | Plant response rating, Wheat (wheat; [13]): 30 | Corn plant response rating (corn; [10]): 0 | Blackgrass plant response rating (blackgrass; [8]): 10 | Plant response rating, Blackgrass (blackgrass; [12]): 20 | Sedge, Umbrella plant response rating ([1]; visual rating, 13 to 15 days): 80

From patent publication US20060069132A1, “Azolecarboxamide herbicides” (priority 2004, published 2006)
